PMC12675575, “A BRET biosensor for measuring uncompetitive engagement of PRMT5 complexes in cells” (Nature Communications, 2025)
“And” between values parts separate entries of the source, which are not always exact repeats. Equal values may be shown once.

Experiments:
[1] = system: PRMT5:MEP50; set-up: method as in ref 1 (a number printed in a supplementary file, which may have a reference list of its own: not looked up in the article's list); conditions: HTRF, H4R3 monomethylation; read-out: Biochemical (nM), IC50; cited from earlier work
[2] = system: MAT2A; assay: BRET probe sensitivity to MAT2A inhibition (Compound A) in live HEK293 cells expressing NLuc-PRMT5; type: cell-based; conditions: Log([Compound A]), 37 °C
[3] = system: MAT2A; assay: as above; type: cell-based; conditions: for normalized BRET signal (Figure S3D) / Normalized BRET probe signal: Log([Compound A]); for normalized BRET signal (Figure S3D): replicates; for Normalized BRET probe signal: 37 °C
Description: To measure BRET probe sensitivity to both MAT2A inhibition and exogenous MTA in live cells, HEK293 cells were pre-treated with 30 nM CBH-002 and incubated at 37 °C and 5% CO2 for 2 h. For MAT2A inhibition, a 20 µM, 3-fold, 11 pt titration series of Compound A (Selleckchem) was added to wells. Cells were incubated either at 37 °C (Fig. 3D) or room temperature (Fig. S3D). Data were normalized using Eq. (2), where BRETMIN = instrument background (no CBH-002), and BRETMAX = 2 h vehicle treatment, and fit curves were generated using Eq. (1). For MTA sensitivity cells were treated with a 1 mM, 11 pt, 2-fold series of MTA (Sigma) and cells were incubated at room temperature for 2 h, reading in 15 min intervals. Data were normalized using Eq. (2), where BRETMIN = instrument background (no CBH-002), and BRETMAX = 2 h + vehicle treatment. Data were fit with Eq. (1).

[4] = biological target: NLuc-PRMT5 co-expressed with WDR77 (Homo sapiens, UniProt O14744); assay: Compound EC50 titrations against MTA, NanoBRET in HEK293 (NLuc-PRMT5 + WDR77), with global Gaddum/Schild or Morrison fits
Chain of NLuc-PRMT5 co-expressed with WDR77 (O14744 whole entry): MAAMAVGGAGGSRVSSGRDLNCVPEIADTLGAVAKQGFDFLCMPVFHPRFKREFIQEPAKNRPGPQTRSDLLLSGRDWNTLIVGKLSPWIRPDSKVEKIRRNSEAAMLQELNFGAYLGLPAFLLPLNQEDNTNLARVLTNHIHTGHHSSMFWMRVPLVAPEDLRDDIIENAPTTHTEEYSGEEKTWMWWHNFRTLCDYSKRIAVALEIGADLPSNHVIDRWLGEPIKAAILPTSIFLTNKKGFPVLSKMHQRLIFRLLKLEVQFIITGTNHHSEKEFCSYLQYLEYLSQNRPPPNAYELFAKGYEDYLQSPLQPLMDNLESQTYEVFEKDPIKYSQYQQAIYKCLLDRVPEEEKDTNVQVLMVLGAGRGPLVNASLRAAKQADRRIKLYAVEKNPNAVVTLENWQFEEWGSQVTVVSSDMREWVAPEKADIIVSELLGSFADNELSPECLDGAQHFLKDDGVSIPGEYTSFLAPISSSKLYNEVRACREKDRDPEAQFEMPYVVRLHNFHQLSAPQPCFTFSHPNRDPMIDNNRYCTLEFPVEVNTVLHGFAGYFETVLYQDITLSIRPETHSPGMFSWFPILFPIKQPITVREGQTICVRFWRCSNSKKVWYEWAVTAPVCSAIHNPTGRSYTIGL
Chain of NLuc-PRMT5 co-expressed with WDR77 (Q9BQA1 whole entry partner): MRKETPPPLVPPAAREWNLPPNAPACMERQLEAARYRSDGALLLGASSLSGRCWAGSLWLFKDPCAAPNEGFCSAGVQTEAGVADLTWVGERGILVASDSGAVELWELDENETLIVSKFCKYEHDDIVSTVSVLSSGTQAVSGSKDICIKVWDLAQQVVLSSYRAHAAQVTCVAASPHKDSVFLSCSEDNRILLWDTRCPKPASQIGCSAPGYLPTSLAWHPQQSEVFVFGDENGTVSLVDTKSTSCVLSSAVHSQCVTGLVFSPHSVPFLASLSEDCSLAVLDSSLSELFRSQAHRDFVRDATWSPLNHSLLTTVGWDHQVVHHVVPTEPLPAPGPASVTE
Description: MTA (Sigma) was prepared at 100× in 100% DMSO and diluted to 10× in Opti-MEM. Inhibitors were run as 11 pt, 3-fold dilution curves and MTA as a seven point, 3-fold dilution curve starting at 100 μM. Cells were incubated for 2 h at 37 °C and 5% CO2 prior to BRET measurements. Data was normalized using Eq. (2) where BRETMIN = saturating compound + maximum [MTA], and BRETMAX = BRET signal under vehicle conditions. Curves were fit using Eq. (3), and EC50 values were plotted against MTA concentration to determine the linear range of MTA detection.

[5] = system: Z-138 cells; set-up: method as in ref 2,3 (a number printed in a supplementary file, which may have a reference list of its own: not looked up in the article's list); conditions: read-out: Proliferation (nM), IC50; cited from earlier work

For `CC(=O)N1CCC(Nc2cc(C(=O)NC[C@H](O)CN3CCc4ccccc4C3)ncn2)CC1` [GSK3326595], the IC50 [1] is given as 6.2 nM.
In the case of `Nc1nc(=O)n(-c2ccccc2Cl)c2nc(C(F)(F)F)ccc12` [Compound A], the “Normalized BRET probe signal” value ([2]; uM 0.82, Time (h) 6) is reported as 54.59 and 55.03 and 49.39, the “Normalized BRET probe signal” value ([2]; uM 1.30, Time (h) 2) is reported as 83.43 and 85.48 and 85.77 and the “Normalized BRET probe signal” value ([2]; uM 1.30, Time (h) 5) is reported as 54.62 and 56.32 and 57.46. For the same molecule, the “Normalized BRET probe signal” value ([2]; uM -1.56, Time (h) 4) was 64.62 and 64.77 and 65.94, the “normalized BRET signal (Figure S3D)” value ([3]; uM 0.35, Time 0 min) was 102.31 and 101.27 and 102.49 and the “normalized BRET signal (Figure S3D)” value ([3]; uM 0.35, Time 15 min) was 102.22 and 100.75 and 100.92. The “normalized BRET signal (Figure S3D)” value ([3]; uM 0.35, Time 30 min) was 98.94 and 102.77 and 99.88, the “normalized BRET signal (Figure S3D)” value ([3]; uM 0.35, Time 45 min) was 101.50 and 99.61 and 97.49 and the “normalized BRET signal (Figure S3D)” value ([3]; uM 0.35, Time 60 min) was 100.91 and 99.04 and 97.98. For the same molecule, the “normalized BRET signal (Figure S3D)” value ([3]; uM 0.35, Time 75 min) was 100.10 and 98.57 and 96.49, the “normalized BRET signal (Figure S3D)” value ([3]; uM 0.35, Time 90 min) was 99.02 and 98.37 and 97.43 and the “normalized BRET signal (Figure S3D)” value ([3]; uM 0.35, Time 120 min) was 96.41 and 97.99 and 95.04. The “normalized BRET signal (Figure S3D)” value ([3]; uM 0.82, Time 0 min) was 101.24 and 100.09 and 103.66, the “normalized BRET signal (Figure S3D)” value ([3]; uM 0.82, Time 15 min) was 101.29 and 99.47 and 102.07 and the “normalized BRET signal (Figure S3D)” value ([3]; uM 0.82, Time 30 min) was 99.28 (2×) and 100.85. For the same molecule, the “normalized BRET signal (Figure S3D)” value ([3]; uM 0.82, Time 45 min) was 99.67 and 98.96 and 100.10, the “normalized BRET signal (Figure S3D)” value ([3]; uM 0.82, Time 60 min) was 100.24 and 98.62 and 99.55 and the “normalized BRET signal (Figure S3D)” value ([3]; uM 0.82, Time 75 min) was 100.92 and 98.42 and 98.44. For the same molecule, the “normalized BRET signal (Figure S3D)” value ([3]; uM 0.82, Time 90 min) was 100.92 and 98.07 and 97.73, the “normalized BRET signal (Figure S3D)” value ([3]; uM 0.82, Time 120 min) was 98.05 and 98.30 and 97.43 and the “Normalized BRET probe signal” value ([3]; uM 0.82, Time (h) 2) was 80.32 and 82.63 and 81.99. For the same molecule, the “Normalized BRET probe signal” value ([3]; uM 0.82, Time (h) 4) was 62.79, the “Normalized BRET probe signal” value ([3]; uM 0.82, Time (h) 5) was 55.09 and 56.94 and 59.00 and the “normalized BRET signal (Figure S3D)” value ([3]; uM 1.30, Time 0 min) was 100.00. For the same molecule, the “normalized BRET signal (Figure S3D)” value ([3]; uM 1.30, Time 15 min) was 100.00, the “normalized BRET signal (Figure S3D)” value ([3]; uM 1.30, Time 30 min) was 100.00 and the “normalized BRET signal (Figure S3D)” value ([3]; uM 1.30, Time 45 min) was 100.00. For the same molecule, the “normalized BRET signal (Figure S3D)” value ([3]; uM 1.30, Time 60 min) was 100.00, the “normalized BRET signal (Figure S3D)” value ([3]; uM 1.30, Time 75 min) was 100.00 and the “normalized BRET signal (Figure S3D)” value ([3]; uM 1.30, Time 90 min) was 100.00. For the same molecule, the “normalized BRET signal (Figure S3D)” value ([3]; uM 1.30, Time 120 min) was 100.00, the “Normalized BRET probe signal” value ([3]; uM 1.30, Time (h) 3) was 81.83 and 81.36 and 78.63 and the “Normalized BRET probe signal” value ([3]; uM 1.30, Time (h) 4) was 64.66 and 66.78 and 66.04. For the same molecule, the “Normalized BRET probe signal” value ([3]; uM 1.30, Time (h) 6) was 52.27 and 54.37 and 54.09, the “normalized BRET signal (Figure S3D)” value ([3]; uM 1.30, Time […]) was 100.00 and the “normalized BRET signal (Figure S3D)” value ([3]; uM -0.13, Time 0 min) was 102.61. For the same molecule, the “normalized BRET signal (Figure S3D)” value ([3]; uM -0.13, Time 30 min) was 99.28, the “normalized BRET signal (Figure S3D)” value ([3]; uM -0.13, Time 45 min) was 99.89 and 99.35 and 98.26 and the “normalized BRET signal (Figure S3D)” value ([3]; uM -0.13, Time 60 min) was 99.27 and 98.76 and 97.87. The “normalized BRET signal (Figure S3D)” value ([3]; uM -0.13, Time 75 min) was 99.29 and 98.14 and 96.57, the “normalized BRET signal (Figure S3D)” value ([3]; uM -0.13, Time 90 min) was 99.41 and 97.78 and 96.89 and the “normalized BRET signal (Figure S3D)” value ([3]; uM -0.13, Time 120 min) was 97.11 and 97.69. For the same molecule, the “Normalized BRET probe signal” value ([3]; uM -1.56, Time (h) 2) was 86.27 and 89.51 and 86.94, the “Normalized BRET probe signal” value ([3]; uM -1.56, Time (h) 3) was 78.52 and 78.24 and 76.36 and the “Normalized BRET probe signal” value ([3]; uM -1.56, Time (h) 5) was 56.30 and 59.42 and 61.19. For the same molecule, the “Normalized BRET probe signal” value ([3]; uM -1.56, Time (h) 6) was 57.39 and 58.36 and 56.05, the “Normalized BRET probe signal” value ([3]; uM -2.04, Time (h) 2) was 91.78 and 93.83 and 92.35 and the “Normalized BRET probe signal” value ([3]; uM -2.04, Time (h) 3) was 84.09 and 82.20 and 80.64. For the same molecule, the “Normalized BRET probe signal” value ([3]; uM -2.04, Time (h) 4) was 71.87 and 73.84 and 72.51, the “Normalized BRET probe signal” value ([3]; uM -2.04, Time (h) 5) was 61.86 and 65.39 and 67.66 and the “Normalized BRET probe signal” value ([3]; uM -2.04, Time (h) 6) was 67.16 and 64.98 and 63.98. For the same molecule, the “Normalized BRET probe signal” value ([3]; uM -2.52, Time (h) 2) was 97.92 and 101.07 and 97.78, the “Normalized BRET probe signal” value ([3]; uM -2.52, Time (h) 3) was 92.42 and 90.78 and 89.69 and the “Normalized BRET probe signal” value ([3]; uM -2.52, Time (h) 4) was 81.28 and 83.71 and 82.94. The “Normalized BRET probe signal” value ([3]; uM -2.52, Time (h) 5) was 74.64 and 76.80 and 79.27, the “Normalized BRET probe signal” value ([3]; uM -2.52, Time (h) 6) was 75.70 and 75.54 and 75.07 and the “Normalized BRET probe signal” value ([3]; uM -2.99, Time (h) 2) was 99.19 and 102.22 and 99.77. The “Normalized BRET probe signal” value ([3]; uM -2.99, Time (h) 3) was 95.84 and 93.35 and 94.20, the “Normalized BRET probe signal” value ([3]; uM -2.99, Time (h) 4) was 94.50 and 92.51 and 93.76 and the “Normalized BRET probe signal” value ([3]; uM -2.99, Time (h) 5) was 87.56 and 91.04 and 95.19. For the same molecule, the “Normalized BRET probe signal” value ([3]; uM -2.99, Time (h) 6) was 89.25 and 91.90 and 87.75, the “Normalized BRET probe signal” value ([3]; uM -3.47, Time (h) 2) was 98.78 and 102.46 and 100.43 and the “Normalized BRET probe signal” value ([3]; uM -3.47, Time (h) 3) was 98.17 and 97.18 and 96.26. For the same molecule, the “Normalized BRET probe signal” value ([3]; uM -3.47, Time (h) 4) was 96.70 and 95.88 and 97.43, the “Normalized BRET probe signal” value ([3]; uM -3.47, Time (h) 5) was 93.94 and 96.00 and 96.68 and the “Normalized BRET probe signal” value ([3]; uM -3.47, Time (h) 6) was 97.50 and 96.53 and 90.92. For the same molecule, the “Time to plateau of BRET inhibition” value ([3]; live cells, pre-equilibrated CBH-002, 37 °C) was ~ 5 h and the “Effect on CBH-002 binding at room temperature” value ([3]; room temperature, 2-h interval) was “did not impact CBH-002 binding”.
In the case of `O=C(NC[C@H](O)CN1CCc2ccccc2C1)c1cc(NC2COC2)ncn1` [EPZ015666], the Schild slope ([4]; Global Gaddum/Schild EC50 shift fit, MTA titration, HEK293) is reported as 1.3 (1.15 - 1.47), the Hill slope ([4]; [MTA] 0 μM, HEK293) is reported as 0.81 and the Hill slope ([4]; [MTA] 11.11 μM, HEK293) is reported as 0.77. The Hill slope ([4]; [MTA] 100 μM, HEK293) was 0.72, the Hill slope ([4]; [MTA] 300 μM, HEK293) was 0.87 and the “Hill slope (Global/Schild fit)” value ([4]; constant across [MTA], constrained to 1 for PF06939999 and GSK3326595) was 0.75 (0.73 - 0.78). For the same molecule, the IC50 [5] was 62 nM.
